Measurements reported in publication PMC12422182 (Science Advances, 2025).

Key:
[1] = biological target: Clvs2; test: microscale thermophoresis; assay type: binding, Locusta migratoria
[2] = biological target: OBP13; test: competitive fluorescence binding assay; parameters: species or system Locusta migratoria
[3] = biological target: OBP13; test: fluorescence titration, Scatchard analysis; assay type: binding, Locusta migratoria

“phosphatidylinositol 4,5-bisphosphate [PI(4,5)P2]” gave a Kd [1] of 5.86 ± 0.59 µM.
In the case of C=Cc1ccc(OC)cc1 [4VA, 4-vinylanisole], the Ki [2] is reported as 3.46 µM.
With c1ccc(Nc2cccc3ccccc23)cc1 [1-NPN, N-phenyl-1-naphthylamine] the Kd [3] was 13.8 µM.
